Measurements: PubChem BioAssay (NCI)
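Dose response: 5 concentrations. Exposure: 48 h. Format: 96-well plates. Endpoint: linear interpolation; highest concentration if not reached. Abbreviation: GI50, concentration required for 50% inhibition of growth. At the TGI there is no net growth.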

Tests used:
Assay in all cases: inhibition of tumour cell growth, NCI panel, 48 h
[1] = test system: A549 NSCLC
[2] = test system: COLO 205 colon
[3] = test system: EKVX NSCLC
[4] = test system: HS 578T breast
[5] = test system: NCI-H23 lung
[6] = test system: NCI/ADR-RES ovarian
[7] = test system: OVCAR-3 ovarian
[8] = test system: RXF 393 renal
[9] = test system: SNB-19 CNS
[10] = test system: SNB-75 CNS

| SMILES | GI50 [1] [µM] | TGI [1] [µM] | GI50 [2] [µM] | TGI [2] [µM] | GI50 [3] [µM] | TGI [3] [µM] | GI50 [4] [µM] | TGI [4] [µM] | GI50 [5] [µM] | TGI [5] [µM] | GI50 [6] [µM] | TGI [6] [µM] | GI50 [7] [µM] | TGI [7] [µM] | GI50 [8] [µM] | TGI [8] [µM] | GI50 [9] [µM] | TGI [9] [µM] | GI50 [10] [µM] | TGI [10] [µM] |
| --- | --- | --- | --- | --- | --- | --- | --- | --- | --- | --- | --- | --- | --- | --- | --- | --- | --- | --- | --- | --- |
| Cc1ccccc1NC(=O)NC(CC(N)=O)c1ccc2c(c1)nc(-c1cccc(Oc3ccc(C(C)(C)C)cc3)c1)n2CCCN1CCCCC1C (centres undefined) | 5.54 | 14.6 | 1.82 | 3.35 | 5.37 | 11.5 | 5.58 | 16.3 | 4.89 | 9.91 | 28 | > 85.9 | 2.57 | 6.35 | 2.91 | 7.13 | 1.97 | 4.27 | 2.41 | 6.5 |
| CC(C)(C)c1ccc(-c2nnc(SCc3ccc(Cl)cc3)n2-c2cccc(C(F)(F)F)c2)cc1 |  | > 100 |  | 23.4 |  | 81.9 |  | > 100 |  | > 100 |  | > 100 |  | 16.8 |  | > 100 |  | > 100 |  | > 94.1 |
| COc1ccc(Cc2ccccc2C(=O)O)c2ccccc12 |  | > 100 |  | 34.5 |  | 98.9 |  | 57.8 |  | 67.3 |  | > 100 |  | 47.1 |  | > 100 |  | > 100 |  | > 100 |
| COc1ccc2c(CNCCCCO)cc3cc4c(cc3c2c1)OCO4 | 0.552 | 6.07 | 1.36 | 4.41 | 2.78 | 11.4 | 0.929 | 4.1 | 2.24 | 6.43 | 1.45 | 8.12 | 0.984 | 4.95 | 0.68 | 2.49 | 1.71 | 9.78 | 2.02 | 6.67 |
| CN(C)CCn1cc(-c2ccc3c(Nc4ccc(CC(=O)Nc5cccc(F)c5)cc4)ncnc3c2)cn1 | 1.3 | 3.46 | 0.0559 | 3.22 | 5.89 | > 10 | 1.92 | > 10 | 1.87 | 4.98 | > 10 | > 10 | 1.6 | 3.48 | 1.35 | 2.84 | 1.34 | 5.39 | 0.0472 | > 10 |
| C=C1C(=O)O[C@H]2[C@H]1CC/C(COC(=O)CCC(=O)OC/C1=C/CC[C@@]3(C)O[C@H]3[C@H]3OC(=O)C(=C)[C@@H]3CC1)=C\CC[C@@]1(C)O[C@@H]21 | 13.7 | 30 | 0.455 | 1.74 | 2.55 | 11.6 | 2.74 | 16 | 2.9 | 11.2 | 14 | 40.5 | 0.599 | 1.91 | 0.661 | 2.17 | 8.46 | 25 | 15.1 | 45.7 |
| COc1cc2c(/C=C3\C(=O)Nc4ccc(Br)cc43)c(Cl)n(C)c2cc1C | 2.56 | 14.5 | 1.96 | 5.43 | 3.76 | 34.1 | 0.517 | 3.46 | 2.78 | 13 | 0.799 | 3.41 | 1.56 | 3.56 | 1.71 | 7.33 | 2.57 | 48.8 | 1.82 | > 25.7 |
| COc1ccc(C(=O)Nc2cccc(C3CC(=O)c4c(cc(OC)c(OC)c4OC)O3)c2)cc1 (centres undefined) | 3.31 | > 100 | 2.39 | 6.57 | 3.12 | > 100 | 2 | 42.4 | 2.63 | > 100 | 0.629 | 17.6 | 0.337 | 39.7 | 1.64 | 5.48 | 1.01 | > 100 | 1.35 | 8.35 |
| CC1=C(C(=O)Nc2ccc(F)c(Cl)c2)C(c2cccc(Cl)c2)NC(=O)N1 (centres undefined) | 24.7 | 85.1 | 13.7 | 27.8 | 24.2 | 72.6 | 12.9 | 37.7 | 16.8 | 31.9 | 27.5 | 67.6 | 19.5 | 56.2 | 15 | 31.5 | 18.1 | 39 | 6.2 | 25.5 |
| O=[N+]([O-])c1ccc2[nH]cc(-c3c4ccccc4cc4[nH]c5ccc([N+](=O)[O-])cc5c34)c2c1 | 2.07 | 4.8 | 2.46 | 7 | 2.4 | 8.41 | 2.35 | 8.19 | 2.59 | 8.11 | 2.91 | 11.5 | 2.57 | 7.32 | 2.03 | 4.73 | 2.88 | 9.13 | 1.84 | 5.93 |
| Oc1ccc2ccccc2c1/C=N\Nc1ccccn1 |  |  | 27.6 | > 100 | 0.656 | > 21.6 | 1.4 | > 34.5 | 0.539 | > 100 | 0.281 | 33.3 | 0.349 | > 56.8 | 1.55 | > 57.4 | 1.33 | > 100 | 1.03 | 10.3 |
| Cn1c2ccccc2c2c3c(c4c5ccccc5n(CCCCCC#N)c4c21)C(=O)N(O)C3=O | 1.68 | 50.4 | 2.5 | 9.09 | 2.67 | > 100 | 3.25 | 41.9 | 1.18 | 9.91 | 0.873 | 24.2 | 1.29 | 7.9 | 1.83 | 7.75 | 0.545 | > 100 | 0.43 | 6.2 |
| O=c1c2ccccc2nc(-c2ccc(Cl)cc2)n1O |  | > 100 |  | > 100 |  | 77.9 |  | > 100 |  | > 100 |  | 58.2 |  | > 100 |  | > 100 |  | > 100 |  | > 100 |
| CC(C)[C@]12O[C@H]1[C@@H]1O[C@]13[C@]1(O[C@H]1C[C@H]1c4c(C(=O)c5ccccc5)oc(OC(=O)c5ccccc5)c4CC[C@@]13C)[C@@H]2O | 0.059 | > 62.4 |  |  | 0.0359 | 1.11 | 0.0303 | 0.996 | < 0.0105 | 0.111 | 0.0418 | 3.42 | 0.0244 | 0.154 | 0.0196 | 0.0497 | 0.176 | 36.6 | 0.0224 | 0.17 |
| O=C1c2cc3c(cc2-c2c1c1ccc([N+](=O)[O-])cc1c(=O)n2CCCCl)OCO3 | 0.523 | > 100 | 0.567 | > 100 | 6.13 | > 100 | > 100 | > 100 | 0.285 |  | 0.0743 |  | 4.8 | > 100 |  |  | 0.138 | > 100 | 3.35 | > 100 |
| Nc1nc(Cl)nc2c1ncn2C1O[C@H](CO)[C@@H](O)[C@@H]1F (some centres undefined) | 0.379 | > 100 | 0.523 | > 100 | 1.51 | > 100 | > 94.2 | > 100 |  |  | 0.0498 | > 100 | > 100 | > 100 | 1.48 | 35.3 | 0.216 | > 100 | 2.25 | > 100 |
| O=C(NC(=S)NS(=O)(=O)c1ccc(N2N=C3c4ccccc4CC3C2c2cccs2)cc1)c1ccccc1 (centres undefined) | 20.3 | > 100 | 38.4 | > 100 | 19.6 | > 100 | 16.1 | 68 |  |  | 18.8 | 67.1 | 30.6 | > 100 | 54 | > 100 | 46.3 | > 100 | > 100 | > 100 |
| CN(C)/[N+]([O-])=N/Oc1cc(Nc2ccc(C(=O)O)cc2)c([N+](=O)[O-])cc1[N+](=O)[O-] | 75 | > 100 | 28.2 | 63.5 | 20.1 | 46.8 | 21.7 | 57.3 | 20.3 | 40.9 | 29.8 | > 100 |  |  | 22.8 | 47.8 | 18.2 | 35.3 | 25.7 | 52.1 |
| CCN1C(=O)N(c2c(F)c(OC)cc(OC)c2F)Cc2cnc3[nH]c(CN4CCOCC4)cc3c21 | 2.83 | > 100 | 3.15 | > 100 | 9.49 | > 100 | 1.82 | > 100 | 7.03 | > 100 | 4.48 | > 100 | 5.73 | > 100 | 0.394 | 8.08 |  |  | 1.13 | 26.5 |
